Target: JAK2 (Homo sapiens, UniProt O60674)
Assay: cell-free kinase activity assay with purified JAK2 (HotSpot, Reaction Biology)
Type: biochemical

Chain of JAK2 (O60674 whole entry): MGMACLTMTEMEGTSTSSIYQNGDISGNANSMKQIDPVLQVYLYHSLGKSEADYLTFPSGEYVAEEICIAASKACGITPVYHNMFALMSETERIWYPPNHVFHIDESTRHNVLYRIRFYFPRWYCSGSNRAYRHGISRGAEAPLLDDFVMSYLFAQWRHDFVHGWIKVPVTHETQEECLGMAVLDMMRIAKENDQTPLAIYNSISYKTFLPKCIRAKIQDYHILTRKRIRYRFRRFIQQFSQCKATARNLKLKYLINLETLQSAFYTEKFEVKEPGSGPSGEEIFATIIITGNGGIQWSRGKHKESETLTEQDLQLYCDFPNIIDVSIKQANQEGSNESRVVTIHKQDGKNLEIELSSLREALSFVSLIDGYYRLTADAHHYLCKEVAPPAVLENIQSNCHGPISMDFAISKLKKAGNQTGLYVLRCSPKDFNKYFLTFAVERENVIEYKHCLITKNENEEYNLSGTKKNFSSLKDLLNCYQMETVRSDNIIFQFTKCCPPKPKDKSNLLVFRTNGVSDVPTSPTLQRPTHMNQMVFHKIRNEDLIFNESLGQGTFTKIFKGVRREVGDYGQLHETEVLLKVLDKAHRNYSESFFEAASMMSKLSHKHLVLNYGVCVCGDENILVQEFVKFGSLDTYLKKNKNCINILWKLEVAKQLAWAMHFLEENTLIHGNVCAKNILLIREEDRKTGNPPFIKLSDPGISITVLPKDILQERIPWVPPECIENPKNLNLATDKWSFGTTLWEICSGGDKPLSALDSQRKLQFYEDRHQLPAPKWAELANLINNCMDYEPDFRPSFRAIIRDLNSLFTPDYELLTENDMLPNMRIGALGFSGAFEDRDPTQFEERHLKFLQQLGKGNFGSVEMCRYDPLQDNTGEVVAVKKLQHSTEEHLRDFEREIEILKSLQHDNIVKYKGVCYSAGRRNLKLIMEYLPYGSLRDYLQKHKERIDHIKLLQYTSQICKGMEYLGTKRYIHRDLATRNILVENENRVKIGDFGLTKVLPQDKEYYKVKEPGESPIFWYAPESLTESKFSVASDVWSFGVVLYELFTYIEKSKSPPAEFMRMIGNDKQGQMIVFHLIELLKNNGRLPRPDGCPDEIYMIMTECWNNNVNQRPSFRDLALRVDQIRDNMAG

Compound: COc1cc(/C=C/C(=O)CC(=O)/C=C/c2ccc(O)c(OC)c2)ccc1O [curcumin]
- IC50: ~8 µM

From article PMC6280482, “The natural polyphenol curcumin induces apoptosis by suppressing STAT3 signaling in esophageal squamous cell carcinoma” (Journal of Experimental & Clinical Cancer Research : CR, 2018)
